Data published in patent US9115123B2, “Preventive or therapeutic agent for pain associated with herpes zoster in acute phase” (Kyushu University, priority 2010, dated 2015).

Assays:
[1] = tested on: HSV-1 infected mice (zoster-associated pain in acute phase); assay: Mouse model of herpes zoster, pain-associated reaction to von Frey filament (0.16 g) after intrathecal administration; format: in vivo; details: five to seven days after infection
Excerpt: Epidermis of the right hind leg (lower part of knee joint) of shaven female C57BL/6J mice was chopped with a bundle of ten 26G injection needles, and coated with a solution (1×10^6 pfu/site) of herpes simplex virus Type I (HSV-1), which as well as varicella zoster virus, belongs to Herpesviridae (family) (Takasaki I, et al., Anesthesiology, 2002, 96:1168-1174). Seven days after infection, the spinal cord was collected after perfusion of 4% neutral buffered paraformaldehyde, replaced with 30% sucrose solution, embedded with OCT compound to prepare frozen slices. […]
The effect of P2X4 receptor antagonism on zoster-associated pain in acute phase was studied using the mouse model of herpes zoster described in Example 2. […] Threshold of the pain was measured before administration of the drug (AM 9:30 to 10:00 and PM 5:30 to 6:00). Pain-associated reaction on the HSV-1 infection side hindpaw was measured using von Frey Filament (0.16 g). […] The pain reaction was evaluated as follows: • Score 0: No reaction • Score 1: Lifting of hind leg • Score 2: Sharp evasion reaction and flinching of hind leg
Each individual pain score was calculated by averaging six scores. The allodynia score (%) was calculated as the average score of each group by counting the maximum reaction score 2 as 100%.
Threshold of the pain was measured before administration of the drugs (AM 9:30 to 10:00 and PM 5:30 to 6:00).

[2] = tested on: HSV-1 infected mice (zoster-associated pain); assay: Mouse model of herpes zoster, pain-associated reaction to paintbrush stimulus after oral administration; format: in vivo
Excerpt: Epidermis of the right hind leg (lower part of knee joint) of shaven female C57BL/6J mice was chopped with a bundle of ten 26G injection needles, and coated with a solution (1×10^6 pfu/site) of herpes simplex virus Type I (HSV-1), which as well as varicella zoster virus, belongs to Herpesviridae (family) (Takasaki I, et al., Anesthesiology, 2002, 96:1168-1174). Seven days after infection, the spinal cord was collected after perfusion of 4% neutral buffered paraformaldehyde, replaced with 30% sucrose solution, embedded with OCT compound to prepare frozen slices. A specimen in cross section was prepared at the fifth lumbar level of the spinal cord, and was subjected to a fluorescent double immunostaining according to Alexa Fluor 488, 546 using OX42 antibody, which has widely been used as a microglia marker, and P2X4 receptor antibody. […] The pain-associated reaction of the hindpaw on the HSV-1 infection side was measured and evaluated referring to the response to a contact stimulant using a paint-brush. The mouse was placed into a cage for measurement, and accustomed to the environment for 1 hour or more. The plantar surface of the right hindpaw was vertically stroked with the paintbrush along the direction from toe to heal, and this was repeated six times at intervals of several seconds. The pain reaction was evaluated as follows: • Score 0: No reaction • Score 1: Lifting of hind leg • Score 2: Sharp evasion reaction and flinching of hind leg Each individual pain score was calculated by averaging six scores.

P2X4 receptor = biological target: T1, P2X4 receptor (Homo sapiens, UniProt Q99571); details: reported in cited WO documents and Nagata K, Imai T et al., Molecular Pain, 2009, 5:20; cited from earlier work
T1 sequence (Q99571 1-388): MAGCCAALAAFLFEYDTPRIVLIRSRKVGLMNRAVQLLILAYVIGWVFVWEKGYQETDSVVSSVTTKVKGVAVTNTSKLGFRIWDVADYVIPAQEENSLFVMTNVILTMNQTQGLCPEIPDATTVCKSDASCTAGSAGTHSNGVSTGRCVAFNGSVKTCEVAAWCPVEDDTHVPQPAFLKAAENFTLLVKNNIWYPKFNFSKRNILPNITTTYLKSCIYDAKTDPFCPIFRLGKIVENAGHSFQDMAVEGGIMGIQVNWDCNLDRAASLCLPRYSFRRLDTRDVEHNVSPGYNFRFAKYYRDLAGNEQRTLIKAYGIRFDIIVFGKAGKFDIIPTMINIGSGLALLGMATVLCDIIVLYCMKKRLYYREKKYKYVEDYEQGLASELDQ

| SMILES | threshold score of the pain (von Frey, allodynia score) ([1]; 10 pmol/mouse intrathecal twice a day) | threshold score of the pain (von Frey, allodynia score) ([1]; 30 pmol/mouse intrathecal twice a day) | threshold of the pain (paintbrush pain score) ([2]; seven days after infection (acute phase), 30 mg/kg oral, from 1 hour to 4 hours after administration) | threshold of the pain (paintbrush pain score) ([2]; seven days after infection (acute phase), 50 mg/kg oral, from 30 minutes to 8 hours after administration) | threshold of the pain (paintbrush pain score) ([2]; thirty days after infection (postherpetic neuralgia), 30 mg/kg oral) | threshold of the pain (paintbrush pain score) ([2]; thirty days after infection (postherpetic neuralgia), 50 mg/kg oral, 30 minutes, 1 hour and 4 hours after administration) | P2X4 receptor antagonism / inhibition (in words) (P2X4 receptor) |
| --- | --- | --- | --- | --- | --- | --- | --- |
| O=C1CC(=O)N(c2cccc(-c3noc(=S)[nH]3)c2)c2ccc3ccccc3c2N1.[Na] [Compound A, 5-[3-(5-thioxo-4H-[1,2,4]oxadiazol-3-yl)phenyl]-1H-naphtho[1,2-b][1,4]diazepine-2,4(3H,5H)-dione sodium salt] | significantly suppressed | significantly suppressed | – | – | – | – | – |
| Fc1ccc([C@@H]2CCNC[C@H]2COc2ccc3c(c2)OCO3)cc1 [Paroxetine] | – | – | significantly improved | continuously improved | did not show any significant improvement | significant improvement was observed | functions as an inhibitor of P2X4 receptor |
